Results on one substance are retold here after patent publication US20100094053A1, “USE OF PERSONAL CARE COMPOSITION” (CONOPCO, INC., D/B/A UNILEVER, priority 2008, published 2010).

In test [1] the target is T1, human recombinant CB2 receptor (Homo sapiens, UniProt P34972).
T1 construct: expressed in transfected cells; host or cells: HEK-293
The experiment in a line: CB2 receptor inhibition binding assay ([3H]-CP-55,940 displacement). The following applies: 0.084 nM [3H]-CP-55,940, 90 minutes at 30° C. Here is the method: (§1) Ki values were calculated by applying the Cheng-Prusoff equation to the IC50 values (obtained by GraphPad) for the displacement of the bound radioligand by increasing concentrations of the test compound.

Test [2] deals with T2, human recombinant CB1 receptor (Homo sapiens, UniProt P21554).
T2 construct: expressed in transfected cells; host or cells: HEK-293
T2 sequence (P21554 whole entry): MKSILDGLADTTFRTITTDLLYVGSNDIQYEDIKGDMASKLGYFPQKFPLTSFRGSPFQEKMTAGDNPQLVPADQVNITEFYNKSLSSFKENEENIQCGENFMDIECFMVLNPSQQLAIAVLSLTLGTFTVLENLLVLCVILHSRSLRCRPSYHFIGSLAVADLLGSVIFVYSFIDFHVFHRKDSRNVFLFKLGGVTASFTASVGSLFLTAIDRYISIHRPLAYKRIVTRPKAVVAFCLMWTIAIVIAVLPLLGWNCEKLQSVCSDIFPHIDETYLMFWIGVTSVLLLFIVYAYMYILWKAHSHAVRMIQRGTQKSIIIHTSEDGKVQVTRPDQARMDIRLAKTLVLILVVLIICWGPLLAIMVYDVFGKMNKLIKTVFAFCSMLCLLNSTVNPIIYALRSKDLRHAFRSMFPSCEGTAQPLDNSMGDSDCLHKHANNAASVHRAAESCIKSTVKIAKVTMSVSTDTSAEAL
The experiment in a line: CB1 receptor inhibition binding assay ([3H]-CP-55,940 displacement). The procedure:
as §1

In test [3] the test system is histamine induced scalp itch. The test is described as follows: Clinical assessment of histamine induced scalp itch (histamine iontophoresis, half head study). It is filed as in vivo, human. The following applies: 1.5% v/v CMEA in ethanol, 30 μl patch on scalp for 24 h, then histamine iontophoresis. The procedure:
Cocomonoethanolamide (CMEA) efficacy against itch was assessed using histamine iontophoresis. CMEA (1.5% v/v) was made up in 100% ethanol. The same concentration of ethanol was used as the vehicular control. A total of 31 subjects completed the randomised, double blind, half head clinical study. Volunteers were initially familiarised with the iontophoresis equipment and test protocol prior to study commencement. Following this phase, product application was commenced. Two sites were selected on each side of the head approximately halfway between the top of the ear and the apex of the head. An area of 2 cm^2 was carefully trimmed close to the scalp. Both the CMEA test solution and the ethanol control (30 μl each) were applied to a filter paper and placed in a 12 mm Finn chamber, which was attached the scalp with adhesive tape. Volunteers kept the patch in place for a period of 24 h. The chambers were then removed from the scalp and each application site received a histamine challenge via iontophoresis. Subjects scored perceived itch throughout the procedure by sliding an indicator up or down a Visual Analogue Score (VAS; calibrated in gradient fashion from 0 (none) to 100% (extremely intense)) to indicate itch intensity in real time. Data are expressed as the mean area under the curve+/−S.E. (standard error of the mean).

T1 sequence (P34972 whole entry): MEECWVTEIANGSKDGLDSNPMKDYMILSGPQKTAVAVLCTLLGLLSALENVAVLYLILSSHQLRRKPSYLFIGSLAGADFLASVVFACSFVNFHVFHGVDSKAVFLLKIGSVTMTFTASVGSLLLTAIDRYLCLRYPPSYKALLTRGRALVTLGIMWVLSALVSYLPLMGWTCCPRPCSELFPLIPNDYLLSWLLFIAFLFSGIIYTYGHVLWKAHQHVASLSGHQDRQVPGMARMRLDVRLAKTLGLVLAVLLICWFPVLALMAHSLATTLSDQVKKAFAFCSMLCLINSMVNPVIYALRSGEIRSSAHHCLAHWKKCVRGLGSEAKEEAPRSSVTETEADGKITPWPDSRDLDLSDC

As for Cocomonoethanolamide [CMEA], the “IC50 for displacement of [3H]-CP-55,940 at CB2 receptor” value in test [1] (HEK-293 cells transfected with human recombinant CB2 receptor) turned out to be 8.19 µg/mL. Further, in test [1] (calculated by Cheng-Prusoff equation from IC50), the Ki (commonly the dissociation constant of the complex between target and ligand, obtained from inhibition or displacement) at CB2 receptor was 6.44 µg/mL. Further, the “IC50 for displacement of [3H]-CP-55,940 at CB1 receptor” value in test [2] (HEK-293 cells transfected with human recombinant CB1 receptor, 0.14 nM [3H]-CP-55,940, 90 minutes at 30° C) is 5.08 µg/mL. Moreover, in test [2] (calculated by Cheng-Prusoff equation from IC50, 0.14 nM [3H]-CP-55,940, 90 minutes at 30° C), the “Ki at CB1 receptor” value is 2.85 µg/mL. Besides, the “binding affinity, CB1R compared with CB2R” value in test [2] (comparison of CB1 and CB2 binding data) is on record as “higher for the CB1R than for CB2R”. The “Visual Analogue Score (area under the curve; mean +/− S.E.M.)” value in test [3] (31 subjects) is on record as 74942 (9625). The “reduction of perceived scalp itch” value in test [3] (versus ethanol control, P<0.02) is listed as 16.6%.
